Source: patent US20080269223A1, “Mouth Dissolvable and Meltable, and Water Dispersable Delivery Formulation” (priority 2004, published 2008)
Where two headings read alike, the source gives them in different places. One block for each compound: values may come before it.

Assays:
[1] = tested on: human plasma protein; settings: cited from earlier work
[2] = cited from earlier work
[3] = Dissolution time of mannitol forms in water; format: physicochemical; settings: ratio 1:30 w/w with respect to water, 20° C.
Procedure: The filler is mannitol, preferably a form of spray dried mannitol. […] Accordingly, α form of spray dried mannitol is most preferred in accordance to the present invention. The α-form of mannitol has mean particle size diameter of about 150 micron and Haussner number of about 1.16, having dissolution time in water with a ratio of 1:30 with respect to water in w/w, not more than 5 seconds at 20° C. […] When the dissolution time of the α-form of spray dried mannitol is compared with the standard and granulated mannitol, it gave following gradation:—

SMILES: Nc1nnc(-c2cccc(Cl)c2Cl)c(N)n1 [Lamotrigine, 3,5-diamino-b-[2,3-dichlorophenyl]-1,2,4-triazine]
displacement of other anti-epileptic drugs from protein binding sites ([1]; carbamazepine, phenytoin, phenobarbitol): does not displace
bound to human plasma protein [1]: approximately 55%
average half life ([2]; Lamotrigine alone): approximately 24 hours
effect of food on bioavailability ([2]; in vivo): not affected by food
half life ([2]; used concurrently with phenytoin): approximately 7.2 hours
half life ([2]; with Valproic Acid): approximately 59 hours

dissolution time in water [3]: 5 s
dissolution time in water ([3]; listed as α-form of mannitol): not more than 5 seconds
SMILES: OCC(O)C(O)C(O)C(O)CO (stereo not drawn) [Spray dried α-mannitol, 1,2,3,4,5,6-hexanehexol]

dissolution time in water [3]: 100 s
SMILES: OC[C@@H](O)[C@@H](O)[C@H](O)[C@H](O)CO [granulated mannitol]

dissolution time in water [3]: 35 s
SMILES: OC[C@@H](O)[C@@H](O)[C@H](O)[C@H](O)CO [standard mannitol]
